Assay results published in paper PMC11511194, “Key Factors for Improving Predictive Accuracy and Avoiding Overparameterization of the PBPK Absorption Model in Food Effect Studies of Weakly Basic Water-Insoluble Compounds in Immediate Release Formulations” (Pharmaceutics, 2024).

Experiment: Dissolution tests of formulations in biorelevant media (USP 2)
Assay type: physicochemical
Details: formulation, 500 and 900 mL FaSSIF or FeSSIF media
Method: Dissolution tests employing biorelevant media have gained widespread utilization in formulation development, offering valuable insights into the behavior of APIs and their respective formulations within the GI tract. In this study, dissolution behavior was assessed using the calibrated USP 2 apparatus (Pion Scientific Instruments, Billerica, MA, USA) across various media, including FaSSGF, FaSSIF, and FeSSIF. The fasted gastric environment was simulated with 300 mL of FaSSGF medium, while FaSSIF and FeSSIF media were used to mimic the intestinal conditions under fasted and fed states, with volumes of 500 and 900 mL, respectively. Dissolution experiments were conducted at a paddle speed of 75 rpm, with the medium temperature maintained at 37 ± 0.5 °C. Sample concentrations were monitored at 1 min intervals via an in situ fiber-optic UV dissolution real-time monitoring system. All experiments were conducted in triplicate.

## O=C(NC[C@H]1CN(c2ccc(N3CCOCC3=O)cc2)C(=O)O1)c1ccc(Cl)s1 [Rivaroxaban]
  dissolution percentages: below 80%
